From patent US20230285347A1, “Preterm Labour with Prostaglandin E2 Receptor Agonists” (IMPERIAL COLLEGE INNOVATIONS LIMITED, priority 2020, published 2023)
Entries after “also recorded” stand apart in the source; their conditions may differ.

Legend:
Type in all cases: cell-based
[1] = biological target: T1, human FLAG-EP2 (Homo sapiens, UniProt P43116); test: Intracellular Ca2+ release in HEK 293 cells stably expressing EP2 (Fluo-4, confocal; Gαq/11 readout); conditions: HEK 293 EP2 cells; butaprost 10 μM, AH13205 10 μM, PGN9856i 100 nM; vs vehicle; FIG. 3
T1 construct: FLAG; expressed in transfected cells
T1 sequence (P43116 whole entry): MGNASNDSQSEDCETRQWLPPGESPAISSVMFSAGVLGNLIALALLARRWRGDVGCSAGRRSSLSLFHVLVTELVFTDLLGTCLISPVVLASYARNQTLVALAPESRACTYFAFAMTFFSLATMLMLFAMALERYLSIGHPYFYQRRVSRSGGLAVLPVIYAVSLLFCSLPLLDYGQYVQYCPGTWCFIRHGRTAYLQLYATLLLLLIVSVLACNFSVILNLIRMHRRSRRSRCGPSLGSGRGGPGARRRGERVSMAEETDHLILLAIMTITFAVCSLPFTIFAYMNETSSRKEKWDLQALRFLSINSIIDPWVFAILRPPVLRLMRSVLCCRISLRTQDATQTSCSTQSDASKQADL
Description: To measure Gαq/11 activation, HEK 293 cells stably expressing human FLAG-EP2 were pre-labelled with a Ca2+ indicator dye and acutely stimulated with each ligand.
HEK 293 cells, prepared following the same methodology as outlined in Example 1, were seeded onto Mattek dishes with 14 mm by 1.5 mm glass coverslips. Cells were incubated with Fluo-4am Ca2+ indicator (ThermoFisher) as per manufacturer's instructions. […]. Time-series images were acquired using a Leica SP5 confocal microscope, Leica LAS AF image acquisition software and a 488 nm excitation laser. HEK cells were imaged using a 10× dry objective. EP2 agonists (butaprost 10 μM, AH13205 10 μM or PGN9856i 100 nM) were added following measurement of basal fluorescence. Raw files were analysed using Fiji Time series analyser plugin to find the maximal fluorescent intensity, which was then averaged across cells in each condition.
The maximal fluorescence intensity was measured by live confocal microscopy.

[2] = biological target: T2, EP2 (Homo sapiens, UniProt P43116); test: Intracellular calcium in myometrial cells with/without oxytocin pre-treatment; conditions: OT pre-treatment 1 hour, 100 nM; butaprost 10 μM, AH13205 10 μM, PGN9856i 100 nM; FIG. 11
T2 construct: primary human myocytes cultured from term pregnant, non-labouring, myometrium; endogenous in cells; host or cells: primary human myometrial cells (myocytes) cultured from pregnant myometrium
T2 sequence (P43116 whole entry): as above
Description: Intracellular calcium response in myometrial cells with/without OT pre-treatment (1 hour, 100 nM) stimulated with butaprost (10 μM), AH13205 (10 μM) or PGN9856i (100 nM). Data are the mean of the maximum fluorescence intensity for each cell measured normalised to background (F-FO). Shown as fold-change over butaprost response. One-way ANOVA with Dunnett's multiple comparison post-hoc test: ##p<0.01. One-sample t-test: *p<0.05.

[3] = biological target: T1, human FLAG-EP2; test: PGE2 release by ELISA in HEK 293 cells stably expressing EP2; conditions: HEK 293 EP2 cells; 6 hours; butaprost 10 μM, AH13205 10 μM, PGN9856i 100 nM; FIG. 4
Description: COX-2 is an inflammatory mediator that drives PGE2 production. The inventors had previously shown EP2-dependent COX-2 release to be downstream of Ca2+ release in primary human myometrium and that 6-hour agonist treatment is necessary for increasing COX-2 levels and PGE2 secretion (Kandola et al, 2014). HEK 293 cells stably expressing human FLAG-EP2 were stimulated for 6 hours with an EP2 agonist (butaprost 10 μM, AH13205 10 μM or PGN9856i 100 nM) or DMSO. 1 mL media was collected from COX-2 experiments and immediately frozen at −80 degrees Celsius. […]

[4] = biological target: T2, EP2; test: PGE2 release by ELISA in primary myometrial cells; conditions: 6 hours, butaprost 10 μM, PGN9856i 100 nM, without OT, FIG. 7, FIG. 12
Excerpt: Tissue culture media collected and used for ELISA. Data shown as mean±SEM from at least 3 independent experiments. One-way ANOVA with Dunnet's multiple comparison post-hoc test: *p<0.05, **p<0.01. PGN9856i is unable to elicit PGE2 release in primary myometrial cells.
In the myometrium EP2 is an important regulator of parturition. To assess if PGN9856i, butaprost and AH13205 induce similar second messenger profiles in the myometrium as HEK 293 cells, primary human myocytes cultured from term pregnant, non-labouring, myometrium, were treated with each ligand and intracellular cAMP, calcium and PGE2 release was measured.
Myometrial tissue was acquired at St. Mary's hospital, Queen Charlotte and Chelsea hospital and Charing Cross hospital, London. Tissue was obtained from women provided with informed written consent with the approval from the Riverside Research Ethics Committee (RREC 3357, 1997-5089, 19/LO/1657) and experiments were carried out under the committee's guidelines and recommendations. […]
Myometrial cells were treated for 6-hours with EP2 agonist (butaprost 10 μM, AH13205 10 μM or PGN9856i 100 nM) or DMSO with/without 1-hour OT (100 nM) pre-treatment. […] Samples were defrosted at room temperature and vortexed before quantification of IL-6 concentrations via ELISA as per manufacturer's instructions (Enzo Lifesciences).

[5] = biological target: T2, EP2; test: PGE2 release in myometrial cells with/without oxytocin pre-treatment; conditions: for effect of OT pre-treatment on ligand-induced PGE2 release: OT 1 hour, 100 nM, then ligand 6 hours, butaprost 10 μM, PGN9856i 100 nM, FIG. 12
Description: Myometrial cells stimulated with either DMSO, butaprost (10 μM), AH13205 (10 μM) or PGN9856i (100 nM) for 6 hours, with/without OT pre-treatment (1 hour, 100 nM). Tissue culture media collected and used for ELISA. PGE2 concentrations normalised to butaprost. Data shown as mean±SEM from at least 3 independent experiments. One-way ANOVA with Dunnett's multiple comparison post-hoc test. One-sample t-test: *p<0.05.
Myometrial cells stimulated with DMSO or PGN9856i (100 nM) for 6 hours, with/without OT pre-treatment (1 hour, 100 nM). Tissue culture media collected and used for ELISA. PGE2 concentrations normalised to vehicle. Data shown as mean±SEM from at least 3 independent experiments. Unpaired t-test: *p<0.05.
Myometrial cells were treated for 6-hours with EP2 agonist (butaprost 10 μM, AH13205 10 μM or PGN9856i 100 nM) or DMSO with/without 1-hour OT (100 nM) pre-treatment. 1 mL media was collected from COX-2 experiments and immediately frozen at −80 degrees Celsius. Samples were defrosted at room temperature and vortexed before quantification of IL-6 concentrations via ELISA as per manufacturer's instructions (Enzo Lifesciences).

| effect of OT pre-treatment on ligand-induced PGE2 release [5] | SMILES | intracellular Ca2+ release (maximal fluorescence intensity) [1] | calcium response with OT pre-treatment [2] | PGE2 levels [3] | PGE2 release [4] | effect on OT-mediated PGE2 release ([5]; myometrial cells treated with OT (100 nM, 1 hour), then PGN9856i 100 nM for 6 hours, FIG. 13) |
| --- | --- | --- | --- | --- | --- | --- |
| unchanged by OT pre-treatment | CC(C)OC(=O)COc1cccc(NC(=O)c2cc(-c3cccc(F)c3)ccc2F)c1 [PGN9856i, propan-2-yl 2-(3-{3′,4-difluoro-[1,1′-biphenyl]-3-amido}phenoxy)acetate] | unable to elicit intracellular Ca2+ release | unable to elicit a response | unable to increase PGE2 levels over basal levels | unable to activate; also recorded: unable to cause PGE2 release | significantly reduce OT-mediated PGE2 release |
| significantly increased by OT | CCCC1([C@H](O)C/C=C/[C@H]2[C@H](O)CC(=O)[C@@H]2CCCCCCC(=O)OC)CCC1 [butaprost] | enhanced Ca2+ significantly above vehicle | significantly enhance the calcium response | efficacious activators of the pathway | significantly enhanced PGE2 release |  |
